Each structure is given as a SMILES string.

Chain of Cytochrome P450 2E1 (P05181 whole entry): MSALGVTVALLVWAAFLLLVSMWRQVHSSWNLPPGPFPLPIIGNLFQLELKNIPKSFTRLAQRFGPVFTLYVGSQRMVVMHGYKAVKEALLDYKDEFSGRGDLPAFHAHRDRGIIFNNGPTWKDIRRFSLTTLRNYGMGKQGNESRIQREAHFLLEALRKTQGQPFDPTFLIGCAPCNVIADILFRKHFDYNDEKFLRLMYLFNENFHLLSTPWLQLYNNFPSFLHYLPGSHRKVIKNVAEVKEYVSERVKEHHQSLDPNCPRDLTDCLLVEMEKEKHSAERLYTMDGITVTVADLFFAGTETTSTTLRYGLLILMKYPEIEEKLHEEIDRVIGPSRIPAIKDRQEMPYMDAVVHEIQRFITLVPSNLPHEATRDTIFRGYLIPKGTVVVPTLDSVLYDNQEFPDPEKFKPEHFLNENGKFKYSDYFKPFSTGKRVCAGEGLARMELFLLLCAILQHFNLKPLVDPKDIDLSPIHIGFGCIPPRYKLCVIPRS

The target of the first data set is Histamine H2 receptor (Homo sapiens, UniProt P25021). Further: in other assays of this panel Not Active means under 50% inhibition at 10 µM.
Chain of Histamine H2 receptor (P25021 whole entry): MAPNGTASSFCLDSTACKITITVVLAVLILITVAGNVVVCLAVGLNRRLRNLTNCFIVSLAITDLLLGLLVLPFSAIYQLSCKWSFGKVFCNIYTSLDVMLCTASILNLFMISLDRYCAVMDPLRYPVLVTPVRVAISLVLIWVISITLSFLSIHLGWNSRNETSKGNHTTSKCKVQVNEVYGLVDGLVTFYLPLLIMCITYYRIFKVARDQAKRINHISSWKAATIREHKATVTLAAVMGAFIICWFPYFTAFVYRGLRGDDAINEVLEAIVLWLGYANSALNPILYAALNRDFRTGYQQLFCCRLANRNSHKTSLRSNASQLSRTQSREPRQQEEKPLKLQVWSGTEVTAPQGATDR
Test: not given
In kind it is cell membranes, CHO-K1, Membrane. To be noted: cho-k1.
Regarding `CCCc1cc(=O)[nH]c(=S)[nH]1` [PROPYLTHIOURACIL], the IC50 result is “Not Active”.
Regarding `CC(=O)OCC(=O)[C@@]1(OC(C)=O)[C@@H](C)C[C@H]2[C@@H]3C[C@H](F)C4=CC(=O)C=C[C@]4(C)[C@@]3(F)[C@@H](O)C[C@@]21C` [DIFLORASONE DIACETATE], the IC50 result was “Not Active”.

Another data set has as its target Cytochrome P450 2E1 (Homo sapiens, UniProt P05181). Further: in other assays of this panel Not Active means under 50% inhibition at 10 µM.
Test: not given
As to conditions: bti-tn-5b1-4.
Regarding `CCCc1cc(=O)[nH]c(=S)[nH]1` [PROPYLTHIOURACIL], the IC50 entry was “Not Active” and the Ki result is “Not Active”.
Regarding `CC(=O)OCC(=O)[C@@]1(OC(C)=O)[C@@H](C)C[C@H]2[C@@H]3C[C@H](F)C4=CC(=O)C=C[C@]4(C)[C@@]3(F)[C@@H](O)C[C@@]21C` [DIFLORASONE DIACETATE], the IC50 result is reported as “Not Active” and the Ki entry is “Not Active”.

A further data set has as its target T1, Polyunsaturated fatty acid lipoxygenase ALOX15 (Oryctolagus cuniculus, UniProt P12530).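 Further: inhibition of 15-lipoxygenase enzyme activity measured with linoleic acid as the substrate; in other assays of this panel Not Active means under 50% inhibition at 10 µM.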
T1 sequence (P12530 whole entry): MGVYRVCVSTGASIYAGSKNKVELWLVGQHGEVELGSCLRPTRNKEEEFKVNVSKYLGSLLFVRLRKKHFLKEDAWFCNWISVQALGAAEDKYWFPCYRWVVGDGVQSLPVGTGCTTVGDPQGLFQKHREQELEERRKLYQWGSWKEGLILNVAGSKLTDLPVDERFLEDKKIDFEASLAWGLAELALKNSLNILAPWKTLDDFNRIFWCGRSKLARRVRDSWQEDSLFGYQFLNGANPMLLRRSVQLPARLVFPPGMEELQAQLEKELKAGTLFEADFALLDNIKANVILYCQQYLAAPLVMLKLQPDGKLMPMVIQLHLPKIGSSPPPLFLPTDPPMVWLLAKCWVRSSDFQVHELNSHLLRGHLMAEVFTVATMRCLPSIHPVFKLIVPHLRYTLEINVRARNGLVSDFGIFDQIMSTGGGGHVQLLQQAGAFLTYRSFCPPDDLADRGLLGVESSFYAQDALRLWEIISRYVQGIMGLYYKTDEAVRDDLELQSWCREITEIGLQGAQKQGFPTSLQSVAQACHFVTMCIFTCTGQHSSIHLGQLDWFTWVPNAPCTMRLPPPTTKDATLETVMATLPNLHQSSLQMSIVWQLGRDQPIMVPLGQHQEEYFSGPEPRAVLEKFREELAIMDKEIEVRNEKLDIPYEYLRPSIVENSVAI
Description: biochemical. To be noted: reticulocytes. In kind it is tissue-based, Reticulocytes.
As for `CCCc1cc(=O)[nH]c(=S)[nH]1` [PROPYLTHIOURACIL], the IC50 result is recorded as “Not Active”.
As to `CC(=O)OCC(=O)[C@@]1(OC(C)=O)[C@@H](C)C[C@H]2[C@@H]3C[C@H](F)C4=CC(=O)C=C[C@]4(C)[C@@]3(F)[C@@H](O)C[C@@]21C` [DIFLORASONE DIACETATE], the IC50 entry was “Not Active”.

In the next data set the target is Cytochrome P450 2D6 (Homo sapiens, UniProt P10635). Further: in other assays of this panel Not Active means under 50% inhibition at 10 µM.
Chain of Cytochrome P450 2D6 (P10635 whole entry): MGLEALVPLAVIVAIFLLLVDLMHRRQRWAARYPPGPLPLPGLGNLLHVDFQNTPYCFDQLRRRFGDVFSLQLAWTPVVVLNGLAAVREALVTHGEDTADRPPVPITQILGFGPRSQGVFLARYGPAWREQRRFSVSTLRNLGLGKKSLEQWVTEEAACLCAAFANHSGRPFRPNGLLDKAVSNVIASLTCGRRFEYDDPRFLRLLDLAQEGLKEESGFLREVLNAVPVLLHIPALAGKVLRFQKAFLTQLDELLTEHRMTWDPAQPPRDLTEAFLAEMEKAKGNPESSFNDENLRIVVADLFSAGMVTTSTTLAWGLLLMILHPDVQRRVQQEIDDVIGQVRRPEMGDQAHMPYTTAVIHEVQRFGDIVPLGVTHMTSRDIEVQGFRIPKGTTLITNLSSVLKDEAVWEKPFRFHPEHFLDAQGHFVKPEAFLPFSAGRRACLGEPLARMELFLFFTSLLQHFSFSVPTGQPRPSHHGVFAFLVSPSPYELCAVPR
Test: not given
To be noted: bti-tn-5b1-4.
For the molecule `CCCc1cc(=O)[nH]c(=S)[nH]1` [PROPYLTHIOURACIL], the IC50 result was “Not Active” and the Ki entry is on record as “Not Active”.
For the molecule `CC(=O)OCC(=O)[C@@]1(OC(C)=O)[C@@H](C)C[C@H]2[C@@H]3C[C@H](F)C4=CC(=O)C=C[C@]4(C)[C@@]3(F)[C@@H](O)C[C@@]21C` [DIFLORASONE DIACETATE], the IC50 result is “Not Active” and the Ki result is “Not Active”.

For another data set, the target named is T2, Alpha-1B adrenergic receptor (Rattus norvegicus, UniProt P15823).
T2 sequence (P15823 whole entry): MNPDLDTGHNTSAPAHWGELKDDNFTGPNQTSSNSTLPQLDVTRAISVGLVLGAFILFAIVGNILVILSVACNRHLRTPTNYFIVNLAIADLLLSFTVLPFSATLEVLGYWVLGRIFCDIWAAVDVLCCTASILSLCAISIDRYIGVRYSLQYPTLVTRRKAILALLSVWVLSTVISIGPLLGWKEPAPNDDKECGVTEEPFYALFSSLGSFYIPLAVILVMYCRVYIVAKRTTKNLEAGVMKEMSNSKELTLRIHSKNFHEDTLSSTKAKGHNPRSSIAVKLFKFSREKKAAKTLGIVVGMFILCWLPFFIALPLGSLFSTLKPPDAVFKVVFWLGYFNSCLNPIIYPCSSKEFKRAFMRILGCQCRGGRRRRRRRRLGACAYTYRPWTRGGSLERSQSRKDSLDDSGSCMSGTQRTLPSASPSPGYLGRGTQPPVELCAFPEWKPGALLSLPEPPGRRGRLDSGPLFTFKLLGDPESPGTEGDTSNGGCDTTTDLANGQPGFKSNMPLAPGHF
Description: DRUGMATRIX: Alpha-1B adrenergic receptor radioligand binding (ligand: prazosin). Format: cell membranes, Wistar, Liver, Membrane. As to conditions: Not Active = under 50% inhibition at 10 µM.
Turning to `CCCc1cc(=O)[nH]c(=S)[nH]1` [PROPYLTHIOURACIL], the IC50 entry is recorded as “Not Active”.
With `CC(=O)OCC(=O)[C@@]1(OC(C)=O)[C@@H](C)C[C@H]2[C@@H]3C[C@H](F)C4=CC(=O)C=C[C@]4(C)[C@@]3(F)[C@@H](O)C[C@@]21C` [DIFLORASONE DIACETATE], the IC50 result is listed as “Not Active”.

System in another data set: not listed separately
Briefly: DRUGMATRIX: Calcium Channel Type L, Benzothiazepine radioligand binding (ligand: [3H] Diltiazem). As to conditions: Not Active = under 50% inhibition at 10 µM. In kind it is cell membranes, Rattus norvegicus, Wistar, Brain, Membrane.
Consider `CCCc1cc(=O)[nH]c(=S)[nH]1` [PROPYLTHIOURACIL], for which the IC50 entry was “Not Active” and the Ki result is “Not Active”.
In the case of `CC(=O)OCC(=O)[C@@]1(OC(C)=O)[C@@H](C)C[C@H]2[C@@H]3C[C@H](F)C4=CC(=O)C=C[C@]4(C)[C@@]3(F)[C@@H](O)C[C@@]21C` [DIFLORASONE DIACETATE], the IC50 result is listed as “Not Active” and the Ki entry was “Not Active”.

The target of another data set is D(1A) dopamine receptor (Homo sapiens, UniProt P21728). Description: DRUGMATRIX: Dopamine D1 radioligand binding (ligand: [3H] SCH-23390). Format: cell membranes, CHO, Membrane. To be noted: cho; Not Active = under 50% inhibition at 10 µM.
Chain of D(1A) dopamine receptor (P21728 whole entry): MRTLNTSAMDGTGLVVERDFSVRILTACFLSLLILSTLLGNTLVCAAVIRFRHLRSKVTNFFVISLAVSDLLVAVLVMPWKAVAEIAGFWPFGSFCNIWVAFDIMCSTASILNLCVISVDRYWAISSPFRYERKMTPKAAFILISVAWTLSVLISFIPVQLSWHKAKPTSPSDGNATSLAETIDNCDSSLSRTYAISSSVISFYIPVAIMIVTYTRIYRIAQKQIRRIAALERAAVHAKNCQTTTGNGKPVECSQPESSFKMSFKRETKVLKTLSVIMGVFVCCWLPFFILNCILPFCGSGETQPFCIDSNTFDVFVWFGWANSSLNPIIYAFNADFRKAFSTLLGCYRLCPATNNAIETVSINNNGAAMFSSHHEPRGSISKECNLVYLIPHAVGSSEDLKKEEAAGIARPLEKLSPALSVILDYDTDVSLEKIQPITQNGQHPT
Take `CCCc1cc(=O)[nH]c(=S)[nH]1` [PROPYLTHIOURACIL]: the IC50 entry was “Not Active”.
As for `CC(=O)OCC(=O)[C@@]1(OC(C)=O)[C@@H](C)C[C@H]2[C@@H]3C[C@H](F)C4=CC(=O)C=C[C@]4(C)[C@@]3(F)[C@@H](O)C[C@@]21C` [DIFLORASONE DIACETATE], the IC50 result was “Not Active”.

For a further data set, the target named is 5-hydroxytryptamine receptor 6 (Homo sapiens, UniProt P50406). Further: in other assays of this panel Not Active means under 50% inhibition at 10 µM.
Chain of 5-hydroxytryptamine receptor 6 (P50406 whole entry): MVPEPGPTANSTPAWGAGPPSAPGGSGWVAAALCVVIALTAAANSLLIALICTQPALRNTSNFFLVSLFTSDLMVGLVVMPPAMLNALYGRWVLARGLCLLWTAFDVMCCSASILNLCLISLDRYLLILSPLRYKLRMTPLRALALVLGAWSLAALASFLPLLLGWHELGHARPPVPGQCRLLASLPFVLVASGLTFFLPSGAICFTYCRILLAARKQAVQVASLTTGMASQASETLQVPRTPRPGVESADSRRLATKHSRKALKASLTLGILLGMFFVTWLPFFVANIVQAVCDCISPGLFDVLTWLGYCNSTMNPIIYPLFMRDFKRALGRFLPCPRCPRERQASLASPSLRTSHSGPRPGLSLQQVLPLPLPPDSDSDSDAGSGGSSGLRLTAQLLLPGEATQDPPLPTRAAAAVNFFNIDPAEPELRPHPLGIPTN
Test: not given
Format: cell membranes, HeLa, Membrane. To be noted: hela.
As for `CCCc1cc(=O)[nH]c(=S)[nH]1` [PROPYLTHIOURACIL], the IC50 entry is given as “Not Active”.
For `CC(=O)OCC(=O)[C@@]1(OC(C)=O)[C@@H](C)C[C@H]2[C@@H]3C[C@H](F)C4=CC(=O)C=C[C@]4(C)[C@@]3(F)[C@@H](O)C[C@@]21C` [DIFLORASONE DIACETATE], the IC50 result is on record as “Not Active”.

A further data set has as its target T3, Adenosine receptor A3 (Homo sapiens, UniProt P0DMS8).
T3 sequence (P0DMS8 whole entry): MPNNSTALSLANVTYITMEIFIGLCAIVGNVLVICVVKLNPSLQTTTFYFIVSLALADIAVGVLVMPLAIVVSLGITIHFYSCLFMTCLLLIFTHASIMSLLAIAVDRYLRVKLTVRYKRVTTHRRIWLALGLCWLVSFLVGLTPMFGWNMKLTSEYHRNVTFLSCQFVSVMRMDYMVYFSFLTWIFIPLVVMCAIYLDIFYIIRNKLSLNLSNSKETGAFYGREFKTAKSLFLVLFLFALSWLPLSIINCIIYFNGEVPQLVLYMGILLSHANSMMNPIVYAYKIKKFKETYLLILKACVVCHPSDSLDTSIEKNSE
Test: not given
As to conditions: cho-k1. Format: cell membranes, CHO-K1, Membrane.
As to `CCCc1cc(=O)[nH]c(=S)[nH]1` [PROPYLTHIOURACIL], the IC50 result is recorded as “Not Active”.
As for `CC(=O)OCC(=O)[C@@]1(OC(C)=O)[C@@H](C)C[C@H]2[C@@H]3C[C@H](F)C4=CC(=O)C=C[C@]4(C)[C@@]3(F)[C@@H](O)C[C@@]21C` [DIFLORASONE DIACETATE], the IC50 result is “Not Active”.

A further data set addresses T4, C-X-C chemokine receptor type 2 (Homo sapiens, UniProt P25025).
T4 sequence (P25025 whole entry): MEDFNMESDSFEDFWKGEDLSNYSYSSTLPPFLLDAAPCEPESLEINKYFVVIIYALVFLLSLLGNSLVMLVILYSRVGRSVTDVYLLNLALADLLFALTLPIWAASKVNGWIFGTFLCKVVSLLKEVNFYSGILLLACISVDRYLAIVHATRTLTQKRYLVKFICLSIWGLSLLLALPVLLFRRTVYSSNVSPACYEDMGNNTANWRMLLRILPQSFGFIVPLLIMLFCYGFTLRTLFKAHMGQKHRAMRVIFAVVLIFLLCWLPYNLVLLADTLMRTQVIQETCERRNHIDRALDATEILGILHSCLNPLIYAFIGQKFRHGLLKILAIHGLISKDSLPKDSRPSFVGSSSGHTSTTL
Test: not given
In kind it is cell membranes, Membrane. As to conditions: cho-k1.
Consider `CCCc1cc(=O)[nH]c(=S)[nH]1` [PROPYLTHIOURACIL], for which the IC50 result is recorded as “Not Active”.
In the case of `CC(=O)OCC(=O)[C@@]1(OC(C)=O)[C@@H](C)C[C@H]2[C@@H]3C[C@H](F)C4=CC(=O)C=C[C@]4(C)[C@@]3(F)[C@@H](O)C[C@@]21C` [DIFLORASONE DIACETATE], the IC50 entry is given as “Not Active”.

In the next data set the target is 5-hydroxytryptamine receptor 2B (Homo sapiens, UniProt P41595). Further: in other assays of this panel Not Active means under 50% inhibition at 10 µM.
Chain of 5-hydroxytryptamine receptor 2B (P41595 whole entry): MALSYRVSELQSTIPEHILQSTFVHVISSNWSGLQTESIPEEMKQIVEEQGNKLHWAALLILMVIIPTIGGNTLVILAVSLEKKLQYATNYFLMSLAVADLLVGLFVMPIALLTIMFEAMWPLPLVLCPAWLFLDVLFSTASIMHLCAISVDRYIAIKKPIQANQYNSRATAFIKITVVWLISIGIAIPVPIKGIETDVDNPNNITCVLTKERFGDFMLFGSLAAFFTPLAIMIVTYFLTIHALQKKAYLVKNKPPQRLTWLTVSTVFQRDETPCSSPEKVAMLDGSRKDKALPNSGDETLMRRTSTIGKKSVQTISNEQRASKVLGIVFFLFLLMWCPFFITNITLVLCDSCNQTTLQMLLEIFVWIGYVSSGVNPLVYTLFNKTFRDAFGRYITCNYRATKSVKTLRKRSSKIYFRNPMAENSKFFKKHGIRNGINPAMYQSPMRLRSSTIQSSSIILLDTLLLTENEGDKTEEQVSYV
Test: not given
As to conditions: cho-k1. In kind it is cell membranes, CHO-K1, Membrane.
On to `CCCc1cc(=O)[nH]c(=S)[nH]1` [PROPYLTHIOURACIL], for which the IC50 result is listed as “Not Active”.
For `CC(=O)OCC(=O)[C@@]1(OC(C)=O)[C@@H](C)C[C@H]2[C@@H]3C[C@H](F)C4=CC(=O)C=C[C@]4(C)[C@@]3(F)[C@@H](O)C[C@@]21C` [DIFLORASONE DIACETATE], the IC50 entry was “Not Active”.

For a further data set, the target named is Beta-3 adrenergic receptor (Homo sapiens, UniProt P13945). Briefly: DRUGMATRIX: Adrenergic beta3 radioligand binding (ligand: [125I] Cyanopindolol). Format: cell membranes, HEK293, Membrane. To be noted: hek293; Not Active = under 50% inhibition at 10 µM.
Chain of Beta-3 adrenergic receptor (P13945 whole entry): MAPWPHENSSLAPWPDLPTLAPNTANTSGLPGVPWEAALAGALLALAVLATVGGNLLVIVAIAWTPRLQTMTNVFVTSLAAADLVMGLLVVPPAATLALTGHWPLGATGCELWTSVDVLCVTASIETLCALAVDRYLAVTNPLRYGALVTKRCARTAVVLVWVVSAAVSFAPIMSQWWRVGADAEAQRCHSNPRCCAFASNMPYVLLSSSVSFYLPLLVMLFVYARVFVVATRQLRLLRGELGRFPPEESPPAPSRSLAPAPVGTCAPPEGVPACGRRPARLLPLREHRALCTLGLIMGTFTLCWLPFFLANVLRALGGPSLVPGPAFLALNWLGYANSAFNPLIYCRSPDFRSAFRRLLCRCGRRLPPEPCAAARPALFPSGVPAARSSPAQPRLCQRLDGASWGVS
For the molecule `CCCc1cc(=O)[nH]c(=S)[nH]1` [PROPYLTHIOURACIL], the IC50 result is “Not Active”.
In the case of `CC(=O)OCC(=O)[C@@]1(OC(C)=O)[C@@H](C)C[C@H]2[C@@H]3C[C@H](F)C4=CC(=O)C=C[C@]4(C)[C@@]3(F)[C@@H](O)C[C@@]21C` [DIFLORASONE DIACETATE], the IC50 entry was “Not Active”.

System in a further data set: not listed separately
Description: DRUGMATRIX: GABAA, Chloride Channel, TBOB radioligand binding (ligand: [3H] TBOB). In kind it is cell membranes, Rattus norvegicus, Wistar, Cerebral cortex, Membrane. To be noted: Not Active = under 50% inhibition at 10 µM.
As to `CCCc1cc(=O)[nH]c(=S)[nH]1` [PROPYLTHIOURACIL], the IC50 entry was “Not Active” and the Ki result is reported as “Not Active”.
Consider `CC(=O)OCC(=O)[C@@]1(OC(C)=O)[C@@H](C)C[C@H]2[C@@H]3C[C@H](F)C4=CC(=O)C=C[C@]4(C)[C@@]3(F)[C@@H](O)C[C@@]21C` [DIFLORASONE DIACETATE], for which the IC50 entry is “Not Active” and the Ki entry was “Not Active”.
